Changes are numbered by the printed parent chain.
Key:
Aurora A (AurA) [1] = assay: Steady-state FRET ligand titration with FRET-labeled AurA; type: binding, human; settings: apo AurA, Alexa 488/Alexa 568
Method: (§1) ADP stocks (Sigma-Aldrich Corporation, St. Louis, Mo.) were dissolved at 100 mM in 1 M HEPES pH 7.5 and stored at −20° C.
(§2) Samples were excited at 490 nm and fluorescence emission was recorded 510 nm to 750 nm.
(§3) Ligand binding data were visualized and analyzed using Microsoft Excel and Origin software. FRET was calculated using the equation E=1−(DA/D), where E is the efficiency of FRET, DA is the fluorescence of the AurA+D+A sample, and D is the fluorescence of the corresponding AurA+D control sample.

Aurora A (AurA) [2] = target: T1, Aurora A (AurA) (Homo sapiens, UniProt O14965, C290S/C393S/L225C/S284C); assay: as above; type: binding; settings: ligand added to apo AurA, calculated from published R0
T1 construct: human Aurora A, residues 122-403, containing an N-terminal hexahistidine tag; hexahistidine (N); made in house; host or cells: E. coli BL21-DE3-RIL
T1 sequence (O14965 122-403 L225C/S284C/C290S/C393S): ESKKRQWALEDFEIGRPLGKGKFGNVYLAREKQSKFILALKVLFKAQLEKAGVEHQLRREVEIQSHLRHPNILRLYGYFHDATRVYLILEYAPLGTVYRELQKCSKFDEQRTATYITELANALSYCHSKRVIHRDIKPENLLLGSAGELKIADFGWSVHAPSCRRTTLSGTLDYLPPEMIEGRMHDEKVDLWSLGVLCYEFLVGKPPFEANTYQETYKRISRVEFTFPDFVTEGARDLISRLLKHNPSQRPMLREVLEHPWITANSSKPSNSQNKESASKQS
Method: as §1, §2, §3

Aurora A (AurA) [3] = target: T2, Aurora A (AurA) (Homo sapiens, UniProt O14965, C290S/C393S/L225C/T287C); assay: Time-resolved FRET ligand titration with labeled AurA (Example 1); type: binding; settings: TR-FRET, ligand added to labeled AurA
T2 construct: human Aurora A, residues 122-403, containing an N-terminal hexahistidine tag; hexahistidine (N); made in house; host or cells: E. coli BL21-DE3-RIL
T2 sequence (O14965 122-403 L225C/T287C/C290S/C393S): T1 sequence (O14965 122-403 L225C/S284C/C290S/C393S) with C163S, T166C
Method: Direct waveform recording experiments were performed in a 384 well plate, and measurement was performed using a NovaFluor fluorescence lifetime plate reader (Fluorescence Innovations, Inc., Minneapolis, Minn.). […] Experiments were performed at 50 nM AurA in ADP Quest Assay buffer+1% DMSO.
TCSPC experiments were performed using a spectrometer built by the group of Dr. David D. Thomas. […] Experiments were performed at 100 nM to 200 nM AurA in ADP Quest Assay buffer+1% DMSO.

Aurora A (AurA) [4] = assay: Time-resolved FRET lifetime assay, AurA biosensor labeled at L225C/S284C, 384-well plates; settings: for DFG-In/DFG-Out state of AurA on inhibitor binding / inter-probe distance: 5 μM inhibitor; for DFG-In/DFG-Out state of AurA on inhibitor binding: samples lacking TPX2; for inter-probe distance: samples lacking TPX2 (phosphorylated and unphosphorylated AurA)
Method: (§4) Serial dilution of each of the inhibitors was performed to prepare 50× stock solutions in DMSO which were transferred to 96-well mother plates. Using a Mosquito HV liquid handler (TTP Labtech Ltd, UK), 1 μL of 50× stock solution was transferred from the 96-well mother plates to 384-well assay plates. […] Donor-only and donor+acceptor labeled AurA, +/− saturating concentrations of TPX2 (either 10 μM or 20 μM), were prepared separately to a final concentration in the plates of 1 nM or 50 nM AurA in ADP Quest buffer (15 mM HEPES, pH 7.4, 20 mM NaCl, 1 mM EGTA, 0.02% Tween-20, 10 mM MgCl2, 0.1 mg/mL BGG (bovine-γ-globulins), 1% DMSO). The donor-only and donor+acceptor samples were separately distributed to the 384-well assay plates using a Multidrop-Combi dispenser with standard plastic tip cassettes (Thermo Fisher Scientific, Waltham, Mass.). Plates were incubated at room temperature (25° C.) for 20 minutes prior to being read on the Fluorescence Lifetime Plate Reader which was designed and built by Fluorescence Innovations, Inc. (Minneapolis, Minn.).
(§5) In MATLAB, waveforms were normalized and grouped into samples types based on the plate layout and output into a format that can be read by the fitting program. These parameters include the timescale of experiments, the instrument response function (IRF), and the matched pairs of normalized donor plus acceptor (D+A) and donor-only (D−O) waveforms for each sample. […] Briefly, the instrument response function and the model of the fluorescence decay are convolved to define the nanosecond decay which describes the measured time-resolved waveforms. […] D+A samples were fit using the same exponential functions as the D−O fits, but modified by a distance-dependent FRET term, consisting of a Gaussian distribution of inter-probe distances, that describes the decrease in the lifetime relative to the D−O samples. The mean distance and full-width half maximum of the Gaussian functions were fit individually for each D+A and D−O pairing, while the parameters that described general conditions of the experiment common among all samples, such as the fraction of a given D+A sample containing D-only protein, were globally linked. Numerical fitting was performed using the Levenberg-Marquardt method.
(§6) The donor+acceptor waveform (FIG. 8C) was modeled from the amplitudes and lifetimes present in the matched donor-only sample and modified so that a distance-dependent resonance energy transfer term describes the decrease in fluorescence lifetime relative to the donor-only control. An iterative fitting procedure was employed in which parameters that could be shared across the plate were initially globally constrained while the remaining parameters settled into photo-physically realistic values, and then released to finalize the distance determinations. In the final iteration, the distance and full-width half maximum of the Gaussian model were allowed to vary individually for each sample.
(§7) The waveforms measured in the presence of a maximal concentration (5 μM) of each inhibitor were fit as described above.

Aurora A (AurA) [5] = target: T3, Aurora A (AurA) (Homo sapiens, UniProt O14965, C290S/C393S/L225C/S284C); assay: as above; settings: 5 μM inhibitor, unphosphorylated AurA bound to TPX2
T3 sequence (O14965 122-403 L225C/S284C/C290S/C393S): T1 sequence (O14965 122-403 L225C/S284C/C290S/C393S)
T3 sequence (Q9ULW0 1-43 partner): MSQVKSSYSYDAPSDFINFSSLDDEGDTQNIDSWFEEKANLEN
Method: as §4, §5, §6, §7

AurA = target: T4, AurA (Homo sapiens, UniProt O14965); settings: FIG. 11; cited from earlier work
T4 sequence (O14965 1-403): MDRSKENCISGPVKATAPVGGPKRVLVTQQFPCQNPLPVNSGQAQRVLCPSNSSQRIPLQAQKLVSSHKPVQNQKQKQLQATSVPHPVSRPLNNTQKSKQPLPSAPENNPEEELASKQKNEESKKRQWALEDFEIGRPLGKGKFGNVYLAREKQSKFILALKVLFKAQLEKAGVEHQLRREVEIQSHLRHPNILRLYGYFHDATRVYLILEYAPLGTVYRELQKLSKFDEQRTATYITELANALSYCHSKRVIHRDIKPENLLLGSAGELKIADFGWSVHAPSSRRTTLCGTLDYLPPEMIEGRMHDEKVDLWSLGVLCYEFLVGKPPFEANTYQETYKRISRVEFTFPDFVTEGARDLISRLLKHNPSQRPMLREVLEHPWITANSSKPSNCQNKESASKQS

p53-altered liver cancer = settings: mice; cited from earlier work
[6] = test system: interaction between AurA and the oncoprotein MYC; settings: cited from earlier work

Row | Compound | change in FRET on addition of ligand (Aurora A (AurA) [1]) | DFG-In/DFG-Out state of AurA on inhibitor binding (Aurora A (AurA) [4]) | inter-probe distance (Aurora A (AurA) [4]) | also measured
1 | Nc1ncnc2c1ncn2[C@@H]1O[C@H](COP(=O)(O)OP(=O)(O)O)[C@@H](O)[C@H]1O [ADP] | reduce FRET | – | – | increase in population average R (donor-acceptor distance) (Aurora A (AurA) [2]): approximately 3 Å; change in average fluorescence lifetime (Aurora A (AurA) [3]): increase in average fluorescence lifetime
2 | CO[C@@H](C(=O)N1Cc2n[nH]c(NC(=O)c3ccc(N4CCN(C)CC4)cc3)c2C1)c1ccccc1 [Danusertib] | – | DFG-Out state | ~30 Å | inter-probe distance relative to DFG-In compounds (Aurora A (AurA) [5]): slightly shorter distances; AurA state in the X-ray structure with bound inhibitor (AurA): DFG-Out state
3 | O=C(O)c1ccc(Nc2ncc3c(n2)-c2ccc(Cl)cc2C(c2c(F)cccc2F)=NC3)cc1 [MLN-8054] | – | DFG-Out state | – | treatment outcome (p53-altered liver cancer): successful treatment; AurA state in the X-ray structure with bound inhibitor (AurA): DFG-Out state; effect on the AurA-MYC interaction [6]: disrupt
4 | CCc1cccc(CC)c1NC(=O)N1Cc2n[nH]c(NC(=O)c3ccc(N4CCN(C)CC4)cc3)c2C1 [PHA-680632] | – | DFG-In state | long distances | –
5 | O=C(Nc1cccc(Cl)c1)Nc1ncc(CCNc2ncnc3ccsc23)s1 [SNS-314] | – | – | long distances | –
6 | COc1cc(N2CCC(N3CCN(C)CC3)CC2)ccc1Nc1ncc(Cl)c(Nc2ccccc2S(=O)(=O)C(C)C)n1 [TAE-684] | – | DFG-In state | long distances | –
7 | Cc1cc(Nc2cc(N3CCN(C)CC3)nc(Sc3ccc(NC(=O)C4CC4)cc3)n2)n[nH]1 [VX-680] | no observable change | DFG-Out state | ~30 Å | –
8 | TPX2: AurA-specific activator peptide, synthetic construct of human TPX2 residues 1-43 (MSQVKSSYSYDAPSDFINFSSLDDEGDTQNIDSWFEEKANLEN; UniProt Q9ULW0 1-43, looked up, fragment) | reduces FRET | – | – | width of the distance distribution (full width at half maximum) (Aurora A (AurA) [4]; in the presence of TPX2, no inhibitor): narrow significantly; inter-dye distance (Aurora A (AurA) [4]; in the presence of TPX2, no inhibitor, unphosphorylated and phosphorylated samples (approximately 30 Å without TPX2)): approximately 50 Å

From patent US11099177B2, “Protein kinase allostery sensor and methods of making and using same” (REGENTS OF THE UNIVERSITY OF MINNESOTA, priority 2016, dated 2021)
